This note sets out measurements from EP0419292A1, “Human tryptase-like protein” (TAISHO PHARMACEUTICAL CO. LTD, priority 1989, dated 1991).

For assay [1], the system named is human tryptase-like protein. The experiment in a line: Effects of inhibitors on the trypsin-like activity. Format: biochemical. To be noted: 10 µM inhibitor; for Inhibition (%) / Activity: substrate Boc-Gln-Gly-Arg-MCA; for Activity: control 843.1. As to the method: Enzyme activity of the human tryptase-like protein during the course of purification or after purification was measured as follows. The enzyme sample was added to 0.1 M Tris-HCl buffer (pH 7.8) containing 25 mM calcium chloride and 100 µM of fluorogenic substrate. The fluorescence was measured with excitation and emmision wavelength of 380 nm and 460 nm, respectively.
Effects of inhibitors on the trypsin-like activity of the human tryptase-like protein was examined using Boc-Gln-Gly-Arg-MCA as substrate.

In assay [2] the test system is human tryptase-like protein. In words: Enzyme activity with fluorogenic substrates (substrate specificity). Format: biochemical. Particulars: for Activity: Substrate 100 µM, 0.1 M Tris-HCl pH 7.8, 25 mM calcium chloride; for %: activity relative to Boc-Gln-Gly-Arg-MCA (100), substrate 100 µM; for hydrolysis by human tryptase-like protein: trypsin-like or chymotrypsin-like activity. As for the experimental part: Enzyme activity of the human tryptase-like protein during the course of purification or after purification was measured as follows. The enzyme sample was added to 0.1 M Tris-HCl buffer (pH 7.8) containing 25 mM calcium chloride and 100 µM of fluorogenic substrate. The fluorescence was measured with excitation and emmision wavelength of 380 nm and 460 nm, respectively. Effects of inhibitors on the enzyme activity were examined by adding 10 µM each of inhibitor to the reaction solution described above.

“Also recorded” adds a separate entry of the source. Starred links: 1 amine or outer side, 2 acyl side, 3 side chain; linkers in the order of their positions; H or OH if unused. Non-standard residues stand in square brackets, D forms with d. Residues, ends and D or L forms follow the SMILES beside them. *: point of attachment. Sta = CC(C)C[C@H](N)[C@@H](O)CC(=O)O; Glutaryl = O=C(CCCC(=O)[*:2])[*:1]; AMC = Cc1cc(=O)oc2cc(N*)ccc12; Suc = O=C(CCC(=O)[*:2])[*:1]; Isovaleryl = CC(C)CC(=O)*; Boc = CC(C)(C)OC(=O)*

With `CC(C)C[C@@H](N)[C@H](O)C(=O)N[C@H](C(=O)N[C@H](C(=O)N[C@@H](CC(=O)O)C(=O)O)C(C)C)C(C)C` [Amastatin], in assay [1], the “Inhibition (%)” value stood at 9% and the Activity is given as 767.2 µU/ml.

For the molecule `N=C(N)c1ccccc1` [Benzamidine], in assay [1], the “Inhibition (%)” value is recorded as 3% and the Activity was 817.8 µU/ml.

In the case of `CC(C)C[C@H](NC(=O)[C@@H](O)[C@H](N)Cc1ccccc1)C(=O)O` [Bestatin], in assay [1], the “Inhibition (%)” value is reported as 0% and the Activity stood at 843.0 µU/ml.

Turning to `Cc1cc(=O)oc2cc(NC(=O)[C@H](CCCNC(=N)N)NC(=O)[C@@H]3CCCN3C(=O)CNC(=O)[C@H](C)NC(=O)OC(C)(C)C)ccc12` [Boc-Ala-Gly-Pro-Arg-MCA] (Boc-AGPR-{AMC}), in assay [2], the Activity came to 199.7 µU/ml and the “%” value is reported as 26%.

In the case of `Cc1cc(=O)oc2cc(NC(=O)[C@H](CCCNC(=N)N)NC(=O)[C@H](C)NC(=O)[C@H](CCC(N)=O)NC(=O)OC(C)(C)C)ccc12` [Boc-Gln-Ala-Arg-MCA] (Boc-Gln-Ala-Arg-{AMC}), in assay [2], the Activity is recorded as 532.4 µU/ml and the “%” value is 71%.

With `Cc1cc(=O)oc2cc(NC(=O)[C@H](CCCNC(=N)N)NC(=O)[C@H](CCCNC(=N)N)NC(=O)[C@H](CCC(N)=O)NC(=O)OC(C)(C)C)ccc12` [Boc-Gln-Arg-Arg-MCA] (Boc-Gln-Arg-Arg-{AMC}), in assay [2], the Activity is given as 177.5 µU/ml and the “%” value came to 24%.

Take `Cc1cc(=O)oc2cc(NC(=O)[C@H](CCCNC(=N)N)NC(=O)CNC(=O)[C@H](CCC(N)=O)NC(=O)OC(C)(C)C)ccc12` [Boc-Gln-Gly-Arg-MCA] (Boc-Gln-Gly-Arg-{AMC}): in assay [2], the Activity was 754.4 µU/ml, the “%” value worked out at 100% and the “hydrolysis by human tryptase-like protein” value is “cleaves; also recorded: hydrolyzed most rapidly”.

Take `Cc1cc(=O)oc2cc(NC(=O)[C@H](CCCCN)NC(=O)[C@H](CCCCN)NC(=O)[C@H](CCC(=O)O)NC(=O)OC(C)(C)C)ccc12` [Boc-Glu-Lys-Lys-MCA] (Boc-Glu-Lys-Lys-{AMC}): in assay [2], the Activity amounted to 221.9 µU/ml and the “%” value came to 29%.

As to `Cc1cc(=O)oc2cc(NC(=O)[C@H](CCCNC(=N)N)NC(=O)[C@H](CCCNC(=N)N)NC(=O)CNC(=O)OC(C)(C)C)ccc12` [Boc-Gly-Arg-Arg-MCA], in assay [2], the Activity was 44.4 µU/ml and the “%” value is reported as 6%.

In the case of `Cc1cc(=O)oc2cc(NC(=O)[C@H](CCCNC(=N)N)NC(=O)[C@H](CCCCN)NC(=O)CNC(=O)OC(C)(C)C)ccc12` [Boc-Gly-Lys-Arg-MCA] (Boc-Gly-Lys-Arg-{AMC}), in assay [2], the Activity was found to be 177.5 µU/ml and the “%” value is recorded as 24%.

`CC[C@H](C)[C@H](NC(=O)OC(C)(C)C)C(=O)N[C@@H](CCC(=O)O)C(=O)NCC(=O)N[C@@H](CCCNC(=N)N)C(=O)Nc1ccc2c(C)cc(=O)oc2c1` [Boc-Ile-Glu-Gly-Arg-MCA] (Boc-IEGR-{AMC}): in assay [2], the Activity is recorded as 355.0 µU/ml and the “%” value is on record as 47%.

`Cc1cc(=O)oc2cc(NC(=O)[C@H](CCCNC(=N)N)NC(=O)[C@H](CCCNC(=N)N)NC(=O)[C@H](CC(C)C)NC(=O)OC(C)(C)C)ccc12` [Boc-Leu-Arg-Arg-MCA] (Boc-Leu-Arg-Arg-{AMC}): in assay [2], the Activity came out at 110.9 µU/ml and the “%” value turned out to be 15%.

Consider `Cc1cc(=O)oc2cc(NC(=O)[C@H](CCCNC(=N)N)NC(=O)[C@@H](NC(=O)[C@H](CC(C)C)NC(=O)OC(C)(C)C)[C@@H](C)O)ccc12` [Boc-Leu-Thr-Arg-MCA] (Boc-Leu-Thr-Arg-{AMC}), for which, in assay [2], the Activity worked out at 110.9 µU/ml and the “%” value was 15%.

For the molecule `Cc1cc(=O)oc2cc(NC(=O)[C@H](CCCNC(=N)N)NC(=O)[C@H](CO)NC(=O)[C@H](Cc3ccccc3)NC(=O)OC(C)(C)C)ccc12` [Boc-Phe-Ser-Arg-MCA] (Boc-Phe-Ser-Arg-{AMC}), in assay [2], the Activity amounted to 177.5 µU/ml and the “%” value is given as 24%.

Regarding `Cc1cc(=O)oc2cc(NC(=O)[C@H](CCCNC(=N)N)NC(=O)[C@@H]3CCCN3C(=O)[C@@H](NC(=O)OC(C)(C)C)C(C)C)ccc12` [Boc-Val-Pro-Arg-MCA] (Boc-Val-Pro-Arg-{AMC}), in assay [2], the Activity worked out at 66.6 µU/ml and the “%” value stood at 9%.

On to `CC(C)C[C@H](NC(=O)[C@@H](NC(=O)N[C@@H](Cc1ccccc1)C(=O)O)[C@@H]1CCN=C(N)N1)C(=O)N[C@H](C=O)Cc1ccccc1` [Chymostatin], for which, in assay [1], the “inhibition of trypsin-like activity” value is “inhibited”, the “Inhibition (%)” value is 47% and the Activity is given as 443.8 µU/ml.

Take `CC(C)CCNC(=O)[C@H](CC(C)C)NC(=O)[C@H]1O[C@@H]1C(=O)O` [E-64c]: in assay [1], the “Inhibition (%)” value worked out at 11% and the Activity is recorded as 754.4 µU/ml.

For the molecule `CC(C)C[C@H](NC(=O)N[C@H](C(=O)N[C@@H](CCC(N)=O)C(=O)N[C@@H](C)C=O)[C@@H]1CCNC(=N)N1)C(=O)O` [Elastatinal], in assay [1], the “Inhibition (%)” value came out at 16% and the Activity is given as 710.0 µU/ml.

On to `Cc1cc(=O)oc2cc(NC(=O)[C@H](CCCNC(=N)N)NC(=O)CNC(=O)CCCC(=O)O)ccc12` [Glt-Gly-Arg-MCA] (Glutaryl-Gly-Arg-{AMC}), for which, in assay [2], the Activity turned out to be 332.8 µU/ml and the “%” value amounted to 44%.

For `CC(=O)N[C@@H](CC(C)C)C(=O)N[C@@H](CC(C)C)C(=O)N[C@H](C=O)CCCNC(=N)N` [Leupeptin], in assay [1], the “inhibition of trypsin-like activity” value is “inhibited; also recorded: strongly inhibited”, the “Inhibition (%)” value was 87% and the Activity is reported as 110.9 µU/ml.

As to `O=S(=O)(F)Cc1ccccc1` [PMSF, phenylmethylsulfonyl fluoride], in assay [1], the “Inhibition (%)” value was 13% and the Activity is 732.2 µU/ml.

For `CC(C)CC(=O)N[C@H](C(=O)N[C@H](C(=O)N[C@@H](CC(C)C)[C@@H](O)CC(=O)N[C@@H](C)C(=O)N[C@@H](CC(C)C)[C@@H](O)CC(=O)O)C(C)C)C(C)C` [Pepstatin] (Isovaleryl-VV[Sta]A[Sta]-OH), in assay [1], the “Inhibition (%)” value came to 0% and the Activity is 845.0 µU/ml.

As for `CC(C)C[C@H](NP(=O)(O)O[C@@H]1O[C@@H](C)[C@H](O)[C@@H](O)[C@H]1O)C(=O)N[C@@H](Cc1c[nH]c2ccccc12)C(=O)O` [Phosphoramidone], in assay [1], the “Inhibition (%)” value was found to be 3% and the Activity came to 820.9 µU/ml.

Regarding `Cc1cc(=O)oc2cc(NC(=O)[C@H](CCCNC(=N)N)NC(=O)[C@H](Cc3ccccc3)NC(=O)[C@@H]3CCCN3)ccc12` [Pro-Phe-Arg-MCA] (H-Pro-Phe-Arg-{AMC}), in assay [2], the Activity was found to be 155.3 µU/ml and the “%” value came out at 21%.

As for `Cc1cc(=O)oc2cc(NC(=O)[C@H](Cc3ccccc3)NC(=O)[C@@H]3CCCN3C(=O)[C@H](C)NC(=O)[C@H](C)NC(=O)CCC(=O)O)ccc12` [Suc-Ala-Ala-Pro-Phe-MCA] (Suc-AAPF-{AMC}), in assay [2], the Activity is recorded as 110.9 µU/ml and the “%” value is reported as 15%.

Consider `Cc1cc(=O)oc2cc(NC(=O)[C@H](Cc3ccc(O)cc3)NC(=O)[C@@H](NC(=O)[C@H](CC(C)C)NC(=O)[C@H](CC(C)C)NC(=O)CCC(=O)O)C(C)C)ccc12` [Suc-Leu-Leu-Val-Tyr-MCA] (Suc-LLVY-{AMC}), for which, in assay [2], the Activity is listed as 244.1 µU/ml, the “%” value came to 32% and the “hydrolysis by human tryptase-like protein” value is reported as “cleaves; also recorded: hydrolized most rapidly”.

On to `Cc1ccc(S(=O)(=O)N[C@@H](CCCCN)C(=O)CCl)cc1` [TLCK, Nα-p-tosyl-L-lysine chloromethyl ketone], for which, in assay [1], the “Inhibition (%)” value is listed as 18% and the Activity amounted to 691.3 µU/ml.

For “N-tosyl-L-phenylalanine chloromethyl ketone [TPCK]”, in assay [1], the “Inhibition (%)” value is given as 16% and the Activity is reported as 708.2 µU/ml.
